Columns and labels:
Assay in all cases: Example B1 herbicidal action, post-emergence, 96-cell seed trays, climatic chamber
Assay type in all cases: in vivo
Solanum nigrum (SOLNI) = conditions: Application post-emergence, 1000 mg/l spray equivalent to 1000 g/ha, evaluated after 9 days (100=total damage to plant, 0=no damage to plant)
Protocol: (§1) Seeds of a variety of test species were sown in sterilised standard soil in seed trays each having 96 cells. After cultivation for 8 to 9 days cultivation (post-emergence) under controlled conditions in a climatic chamber (cultivation at 23/17° C., day/night; 13 hours light; 50-60% humidity), the plants were treated with an aqueous spray solution of 1000 mg/l of the active ingredient dissolved in 10% DMSO (dimethyl sulfoxide, CAS RN 67-68-5) as a solvent, equivalent to 1000 g/ha. The plants were grown in the climatic chamber after application at (24/19° C., day/night; 13 hours light; 50-60% humidity) and watered twice daily. After 9 days until the test was evaluated (100=total damage to plant, 0=no damage to plant)

[1] = system: Amaranthus retroflexus (AMARE); conditions: Application post-emergence, 1000 mg/l spray equivalent to 1000 g/ha, evaluated after 9 days
Protocol: as §1

Stellaria media (STEME) = conditions: Application post-emergence, 1000 mg/l spray equivalent to 1000 g/ha, evaluated after 9 days (100=total damage to plant, 0=no damage to plant)
Protocol: as §1

[2] = system: Nasturtium officinale (NAAOF); set-up: scale not given here; conditions: Application post-emergence, 1000 mg/l spray equivalent to 1000 g/ha, evaluated after 9 days (100=total damage to plant, 0=no damage to plant)
Protocol: as §1

Row | Compound | damage to plant, Solanum nigrum (SOLNI) (Solanum nigrum (SOLNI)) | damage to plant, Amaranthus retroflexus (AMARE) [1] | damage to plant, Stellaria media (STEME) (Stellaria media (STEME)) | damage to plant, Nasturtium officinale (NAAOF) [2]
1 | O=c1[nH]c2nccnc2c(O)c1-c1ccc(Cl)cc1Cl [Compound A1] | 0 | 0 | 7 | 5
2 | O=c1[nH]c2nccnc2c(O)c1-c1ccccc1Cl [Compound A2] | 0 | 6 | 2 | 2
3 | O=c1[nH]c2nccnc2c(O)c1-c1cc(Cl)ccc1Cl [Compound A3] | 0 | 8 | 3 | 4
4 | O=c1[nH]c2nccnc2c(O)c1-c1cccc(Cl)c1Cl [Compound A4] | 2 | 5 | 1 | 2
5 | O=c1[nH]c2nccnc2c(O)c1-c1c(Cl)cccc1Cl [Compound A5] | 3 | 3 | 3 | 6
6 | Cc1ccccc1-c1c(O)c2nccnc2[nH]c1=O [Compound A6] | 5 | 0 | 0 | 0
7 | O=c1[nH]c2nccnc2c(O)c1-c1ccccc1C(F)(F)F [Compound A8] | 0 | 5 | 2 | 7
8 | COc1c(Cl)cc(Cl)cc1-c1c(O)c2nccnc2[nH]c1=O [Compound A9] | 4 | 7 | 8 | 3
9 | O=c1[nH]c2nccnc2c(O)c1-c1ccc(F)cc1Cl [Compound A10] | 0 | 9 | 2 | 2
10 | O=c1[nH]c2nccnc2c(O)c1-c1ccccc1OC(F)(F)F [Compound A13] | 0 | 5 | 3 | 0
11 | O=c1[nH]c2nccnc2c(O)c1-c1c(Cl)cc(C(F)(F)F)cc1Cl [Compound A14] | 0 | 6 | 7 | 7
12 | O=c1[nH]c2nccnc2c(O)c1-c1ccccc1F [Compound A15] | 0 | 0 | 0 | 2
13 | O=c1[nH]c2nccnc2c(O)c1-c1ccc(F)cc1C(F)(F)F [Compound A17] | 5 | 8 | 5 | 7
14 | O=c1[nH]c2nccnc2c(O)c1-c1ccc(F)cc1Br [Compound A18] | 6 | 6 | 4 | 9
15 | O=c1[nH]c2nccnc2c(O)c1-c1cc(Cl)ccc1C(F)(F)F [Compound A19] | 7 | 6 | 5 | 5
16 | COc1ccc(-c2c(O)c3nccnc3[nH]c2=O)c(OC)c1 [Compound A20] |  |  | 0 | 2

Row | Compound | damage to plant, Solanum nigrum (SOLNI) (Solanum nigrum (SOLNI)) | damage to plant, Amaranthus retroflexus (AMARE) [1] | damage to plant, Stellaria media (STEME) (Stellaria media (STEME)) | damage to plant, Nasturtium officinale (NAAOF) [2]
17 | O=c1[nH]c2nccnc2c(O)c1-c1c(Cl)ccc(Cl)c1Cl [Compound A21] | 5 | 7 | 3 | 6
18 | O=c1[nH]c2ncc(Br)nc2c(O)c1-c1c(Cl)cccc1Cl [Compound A26] | 0 | 0 | 2 | 0
19 | O=c1[nH]c2ncc(Cl)nc2c(O)c1-c1c(Cl)cccc1Cl [Compound A27] | 0 | 0 | 2 | 0
20 | O=c1[nH]c2nccnc2c(O)c1-c1cc(Cl)cc(Cl)c1Cl [Compound A28] | 0 | 2 | 2 | 3
21 | O=c1[nH]c2nccnc2c(O)c1-c1ccc2ccccc2c1 [Compound A29] | 2 | 2 | 3 | 0
22 | Cc1cc(C)c(-c2c(O)c3nccnc3[nH]c2=O)c(C)c1 [Compound A30] | 0 | 7 | 4 | 3
23 | O=c1[nH]c2nccnc2c(O)c1-c1c(Cl)cccc1C(F)(F)F [Compound A31] | 0 | 5 | 3 | 3
24 | O=c1[nH]c2nccnc2c(O)c1-c1cccc(C(F)(F)F)c1Cl [Compound A32] | 2 | 0 | 0 | 0
25 | Cc1ccc(Cl)c(-c2c(O)c3nccnc3[nH]c2=O)c1F [Compound A33] | 3 | 4 | 3 | 2
26 | O=c1[nH]c2nccnc2c(O)c1-c1cc(C(F)(F)F)ccc1Cl [Compound A34] | 2 | 6 | 4 | 4
27 | Cc1ccc(F)c(-c2c(O)c3nccnc3[nH]c2=O)c1Cl [Compound A35] | 4 | 4 | 0 | 3
28 | CC(=O)Oc1c(-c2ccc(Cl)cc2Cl)c(=O)[nH]c2nccnc12 [Compound B1] | 0 | 8 | 3 | 0
29 | CC(C)C(=O)Oc1c(-c2ccc(F)cc2Cl)c(=O)[nH]c2nccnc12 [Compound B2] | 0 | 5 | 0 | 0
30 | CCC(=O)Oc1c(-c2ccc(F)cc2Cl)c(=O)[nH]c2nccnc12 [Compound B3] | 0 | 8 | 2 | 0
31 | CCn1c(=O)c(-c2ccccc2OC(F)(F)F)c(O)c2nccnc21 [Compound D5] |  | 3 | 6 | 7
